Measured values: patent US20140329863A1 (priority 2011, published 2014)
Where two headings read alike, the source gives them in different places.

Experiments:
[1] = tested on: PrP^Sc in dividing ScN2a-cl3 cells; type: cell-based, mouse; design: Dividing ELISA pEC50 (μM) 1st Expt. / Dividing ELISA pEC50 (μM) 2nd Expt. / Dividing ELISA pEC50 (μM) 3rd Expt. / Dividing ELISA pEC50 (μM) Mean: unit not given here
[2] = tested on: PrP^Sc in nondividing ScN2a-cl3 cells; type: cell-based, mouse; details: read-out: Non-Dividing ELISA EC50 (μM) Mean (n = 3); ScN2a-c13 non-dividing cells; mean n = 3
[3] = tested on: N2a-cl3 cells; test: cells; details: Mus musculus, N2a-cl3, read-out: Dividing Calcein EC50 (μM) Mean (n = 3)
[4] = Table 29, 2-AMT analogs tested for potency, usually n = 3 or more
[5] = ScN2a-cl3 dividing cells, 1st determination
[6] = ScN2a-cl3 dividing cells, 2nd determination
[7] = ScN2a-cl3 dividing cells, 3rd determination
[8] = ScN2a-cl3 dividing cells, mean of three determinations
[9] = read-out: Dividing ELISA EC50 (μM) 1st Expt., ScN2a-cl3 dividing cells, 1st determination
[10] = read-out: Dividing ELISA EC50 (μM) 2nd Expt., ScN2a-cl3 dividing cells, 2nd determination
[11] = read-out: Dividing ELISA EC50 (μM) 3rd Expt., ScN2a-cl3 dividing cells, 3rd determination
[12] = read-out: Dividing ELISA EC50 (μM) Mean, ScN2a-cl3 dividing cells, mean of three determinations

Row | Compound | EC50 ([1]; AMT analogs tested for potency) | EC50 [1, 4] | melting point | Dividing ELISA pEC50 (μM) 1st Expt. [1, 5] | Dividing ELISA pEC50 (μM) 2nd Expt. [1, 6] | Dividing ELISA pEC50 (μM) 3rd Expt. [1, 7] | Dividing ELISA pEC50 (μM) Mean [1, 8] | EC50 [1, 9] | EC50 [1, 10] | EC50 [1, 11] | EC50 [1, 12] | EC50 [2] | EC50 [3]
1 | COc1ccc(-c2csc(Nc3ccc(C)cn3)n2)c(OC)c1 [IND74, [4-(2,4-Dimethoxy-phenyl)-thiazol-2-yl]-(5-methyl-pyridin-2-yl)-amine] | 3.13 µM | 3.13 µM | 157 to 158 °C | – | – | – | – | – | – | – | – | – | –
2 | Cc1ccnc(Nc2nc(-c3ccc(OC(F)(F)F)cc3)cs2)c1 [IND78, (4-Methyl-pyridin-2-yl)-[4-(4-trifluoromethoxy-phenyl)-thiazol-2-yl]-amine] | > 32 µM | > 32 µM | 275 to 282 °C | – | – | – | – | – | – | – | – | – | –
3 | COc1ccnc(Nc2nc(-c3ccncc3)cs2)c1 [IND111, (4-Methoxy-pyridin-2-yl)-(4-pyridin-4-yl-thiazol-2-yl)-amine] | 0.605 µM | – | 190 to 192 °C | – | – | – | – | – | – | – | – | – | –
4 | COc1ccc(Nc2nc(-c3ccncc3)cs2)nc1 [IND119, (5-Methoxy-pyridin-2-yl)-(4-pyridin-4-yl-thiazol-2-yl)-amine] | 1.32 µM | – | 213 to 214 °C | – | – | – | – | – | – | – | – | – | –
5 | COc1ccc(Nc2nc(-c3cc4ccccc4o3)cs2)nc1 [IND121, (4-Benzofuran-2-yl-thiazol-2-yl)-(5-methoxy-pyridin-2-yl)-amine] | 1.74 µM | – | 185 to 186 °C | – | – | – | – | – | – | – | – | – | –
6 | COc1ccc(Nc2nc(-c3ccc(-c4ccccc4)cc3)cs2)nc1 [IND122, (4-Biphenyl-4-yl-thiazol-2-yl)-(5-methoxy-pyridin-2-yl)-amine] | 0.432 µM | – | 212 to 213 °C | – | – | – | – | – | – | – | – | – | –
7 | COc1ccc(-c2csc(Nc3cccc(C)n3)n2)cc1OC [compound 4, [4-(3,4-dimethoxyphenyl)-thiazol-2-yl]-(6-methylpyridin-2-yl)-amine] | – | – | 264 to 266 °C | 5.25 | 5.92 | 5.65 | 5.61 | 5.62 µM | 1.19 µM | 2.22 µM | 3.01 µM | > 32 µM | > 32 µM
8 | COc1ccc(-c2csc(Nc3ccccn3)n2)cc1OC [compound 6, [4-(3,4-dimethoxyphenyl)-thiazol-2-yl]pyridin-2-yl-amine] | – | – | 211 to 214 °C | – | – | – | – | 11.8 µM | 6.47 µM | 6.38 µM | 8.22 µM | > 32 µM | > 32 µM
9 | COc1ccc(-c2csc(Nc3ccncc3)n2)cc1OC [compound 8, [4-(3,4-dimethoxyphenyl)-thiazol-2-yl]pyridin-4-yl-amine] | – | – | 205 to 207 °C | >4.5 | 4.60 | 4.57 | – | > 32 µM | 25.2 µM | 26.9 µM | > 28 µM | > 32 µM | > 32 µM
10 | COc1ccc(-c2csc(Nc3ccccc3)n2)cc1OC [compound 9, [4-(3,4-dimethoxyphenyl)-thiazol-2-yl]-phenyl-amine] | – | – | 170 to 174 °C | 5.13 | 5.14 | 5.35 | 5.21 | 7.4 µM | 7.29 µM | 4.45 µM | 6.38 µM | > 32 µM | > 32 µM
11 | COc1ccc(-c2csc(Nc3ncccn3)n2)cc1OC [compound 10, [4-(3,4-dimethoxyphenyl)-thiazol-2-yl]pyrimidin-2-yl-amine] | – | – | 225 to 228 °C | 5.49 | 5.17 | 5.73 | 5.46 | 3.25 µM | 6.71 µM | 1.85 µM | 3.94 µM | > 32 µM | > 32 µM
12 | COc1ccc(-c2csc(Nc3cnccn3)n2)cc1OC [compound 11, [4-(3,4-dimethoxyphenyl)-thiazol-2-yl]pyrazin-2-yl-amine] | – | – | 205 to 207 °C | 4.59 | 5.03 | 4.93 | 4.85 | 26 µM | 9.23 µM | 11.7 µM | 15.6 µM | > 32 µM | > 32 µM
13 | COc1ccc(-c2csc(Nc3ncccc3C)n2)cc1OC [compound 15, [4-(3,4-dimethoxyphenyl)-thiazol-2-yl]-(3-methylpyridin-2-yl)-amine] | – | – | 264 to 266 °C | 4.89 | 5.68 | 5.17 | 5.25 | 13 µM | 2.07 µM | 6.81 µM | 7.29 µM | > 32 µM | > 32 µM
14 | COc1ccc(-c2csc(Nc3cc(C)ccn3)n2)cc1OC [compound 16, [4-(3,4-dimethoxyphenyl)-thiazol-2-yl]-(4-methylpyridin-2-yl)-amine] | – | – | 211 to 213 °C | 5.95 | 6.13 | 5.95 | 6.01 | 1.13 µM | 0.736 µM | 1.13 µM | 1 µM | > 32 µM | > 32 µM
15 | COc1ccc(-c2csc(Nc3ccc4ccccc4c3)n2)cc1OC [compound 19, [4-(3,4-dimethoxyphenyl)-thiazol-2-yl]-naphthalen-2-yl-amine] | – | – | 221 to 224 °C | 6.36 | 6.50 | 6.38 | 6.41 | 0.436 µM | 0.317 µM | 0.413 µM | 0.389 µM | > 32 µM | > 32 µM
16 | COc1ccc(-c2csc(Nc3cccc4ccccc34)n2)cc1OC [compound 20, [4-(3,4-dimethoxyphenyl)-thiazol-2-yl]-naphthalen-1-yl-amine] | – | – | 244 to 246 °C | >4.5 | >4.5 | >4.5 | – | > 32 µM | > 32 µM | > 32 µM | > 32 µM | > 32 µM | > 32 µM
17 | COc1ccc(-c2csc(Nc3ccc(C)cn3)n2)cc1 [compound 21, [4-(4-Methoxyphenyl)-thiazol-2-yl]-(5-methylpyridin-2-yl)-amine] | – | – | 246 to 248 °C | 5.30 | 5.72 | 5.66 | 5.56 | 5.02 µM | 1.89 µM | 2.19 µM | 3.03 µM | > 32 µM | > 32 µM
18 | COc1ccccc1-c1csc(Nc2ccc(C)cn2)n1 [compound 22, [4-(2-Methoxyphenyl)-thiazol-2-yl]-(5-methylpyridin-2-yl)-amine] | – | – | 228 to 230 °C | >4.5 | 4.58 | 4.52 | – | > 32 µM | 26.1 µM | 30.2 µM | > 29 µM | > 32 µM | > 32 µM
